# From ChEMBL document CHEMBL1126519, “Addition of amines to methyl 3-dehydroquinate and 3-dehydroshikimate” (Bioorg Med Chem Lett, 1993)
# Experiment: pKA value in aqueous solution
# Conditions: aqueous solution
row,pKa,SMILES
1,8.62,NCc1ccccn1
2,8.9,COC(=O)C(N)CCCCNC(=O)OC(C)(C)C (stereo not drawn)
3,7.73,COC(=O)CN
4,10.8,COC(=O)C(CCCCN)NC(=O)OC(C)(C)C (stereo not drawn)

# Continued, compound first:
row,SMILES,pKa
1,NCCc1ccccn1,9.52
2,CN(C)c1ccc(N)cc1,6.71
3,NCCc1ccccc1 [PHENETHYLAMINE],9.08

# Same assay, conditions: buffer
row,SMILES,pKA
1,Nc1ccccn1 [2-AMINOPYRIDINE],7.6
